The text below walks through data of patent US7728132B2, “Compositions for stabilizing chlorinated water to sunlight decomposition, and methods of preparation thereof” (Enviro Tech Chemical Services, Inc., priority 2007, dated 2010).

Data set [1] can be described thus: Dispensing and dissolution of product in swimming pool. Particulars: 5.85 lb dry solid in 20,000 gallon pool, recirculation pump running. It counts as physicochemical. On the procedure: The gallon jugs of Examples 2 and 4 were taken to a residential swimming pool of 20,000 gallons estimated volume. The water temperature was 76° F. The sample of Example 2 was mildly shaken and then using a single motion, poured into the 8 foot deep end of the pool near the return pipe from the pump where the turbulence was high. […] Next the gallon jug of Example 4 was emptied into the pool in the same vicinity and same manner. […] The jug was rinsed clean with two aliquots of pool water.
Cyanuric acid wetcake (1405 lb) containing 66% solids is introduced to a 50 cubic foot stainless steel ribbon blender powered by dual 15 HP motors. Soft water (43.9 lb) is added while mixing in the blender. With further blending, solid sodium hydroxide microbeads (288.3 lb) are introduced over a three-minute period. The mixture becomes very hot as evidenced by the large amount of steam that escapes the reaction mixture into the atmosphere. The outside skin of the ribbon blender becomes too hot to touch and a temperature of 130° F. is measured with a digital infrared thermometer. […]
A one-gallon jug of Instant Pool Water Conditioner (Natural Chemistry Inc. of Norwalk, Conn.) was purchased from a local pool store. […] Using a pool brush, the undissolved material was readily dispersed and dissolved with a sweeping action. […]

For data set [2] the following is noted: granules in pool water; cited from earlier work.
For data set [3] the following is noted: as reported for prior-art products; cited from earlier work.

Bounds are passed on as bounds.

With `O=c1[n-]c(=O)[nH]c(=O)[nH]1.[Na+]` [Prospective Example 8, monosodium cyanurate], in data set [1], the “time until all is dissolved” value is no more than 30 min.
As to `O=c1[nH]c(=O)[nH]c(=O)[nH]1` [cyanuric acid], the time to dissolve result in data set [2] is recorded as “several days”.
For `O=c1[n-]c(=O)[nH]c(=O)[nH]1.[Na+]` [monosodium cyanurate], in data set [3], the pH entry was “neutral”.
